{"source": "PubChem BioAssay AID1963449", "about": "(Molecular Pharmacology Branch, DTP, NCI, 2024);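 further: spheroids exposed to compounds for 7 days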", "system": "596521-263-R-J1-PDC complex spheroid growth", "test": "Anticancer human tumor 596521-263-R-J1-PDC patient-derived soft tissue sarcoma cell line growth inhibition [Asc]", "details": "for IC50: curve of first compound; for viability, T/C: stronger effect = lower value", "procedure,_shortened": "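Concentration series start at each agent's clinical Cmax, or at 10 microM when none is established, and drop in half-log steps; agents are applied alone or together to complex spheroids built with HUVEC and hMSC.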"}
{"smiles": "O=C(c1cc(Cc2n[nH]c(=O)c3ccccc23)ccc1F)N1CCN(C(=O)C2CC2)CC1", "note": "+ Cc1c(S(C)(=O)=O)c(-c2cc(F)cc(N3CCN(c4ccc(NS(=O)(=O)c5ccc(NC(CCN6CCC(C(=O)OCCCP(=O)(O)O)CC6)CSc6ccccc6)c(S(=O)(=O)C(F)(F)F)c5)cc4)CC3)c2)c(-c2ccc(Cl)cc2)n1C(C)C", "values": [{"measurement": "IC50", "setting": "second compound 0.0316 µM", "result": "> 10000", "unit": "nM"}, {"measurement": "IC50", "setting": "second compound 0.1 µM", "result": "> 10000", "unit": "nM"}, {"measurement": "IC50", "setting": "second compound 0.316 µM", "result": 8230, "unit": "nM"}, {"measurement": "IC50", "setting": "second compound 1 µM", "result": 5330, "unit": "nM"}, {"measurement": "IC50", "setting": "second compound 3.16 µM", "result": 1380, "unit": "nM"}, {"measurement": "IC50", "setting": "second compound 10 µM", "result": "< 31.6", "unit": "nM"}, {"measurement": "viability, T/C", "setting": "second compound 0.0316 µM, first compound 0.0316 µM", "result": 100, "unit": "%"}, {"measurement": "viability, T/C", "setting": "second compound 0.0316 µM, first compound 0.1 µM", "result": 95.7, "unit": "%"}, {"measurement": "viability, T/C", "setting": "second compound 0.0316 µM, first compound 0.316 µM", "result": 88.8, "unit": "%"}, {"measurement": "viability, T/C", "setting": "second compound 0.0316 µM, first compound 1 µM", "result": 89.3, "unit": "%"}, {"measurement": "viability, T/C", "setting": "second compound 0.0316 µM, first compound 3.16 µM", "result": 85.7, "unit": "%"}, {"measurement": "viability, T/C", "setting": "second compound 0.0316 µM, first compound 10 µM", "result": 59.4, "unit": "%"}, {"measurement": "viability, T/C", "setting": "second compound 0.1 µM, first compound 0.0316 µM", "result": 96.3, "unit": "%"}, {"measurement": "viability, T/C", "setting": "second compound 0.1 µM, first compound 0.1 µM", "result": 102, "unit": "%"}, {"measurement": "viability, T/C", "setting": "second compound 0.1 µM, first compound 0.316 µM", "result": 86.4, "unit": "%"}, {"measurement": "viability, T/C", "setting": "second compound 0.1 µM, first compound 1 µM", "result": 98.2, "unit": "%"}, {"measurement": "viability, T/C", "setting": "second compound 0.1 µM, first compound 3.16 µM", "result": 76.2, "unit": "%"}, {"measurement": "viability, T/C", "setting": "second compound 0.1 µM, first compound 10 µM", "result": 54, "unit": "%"}, {"measurement": "viability, T/C", "setting": "second compound 0.316 µM, first compound 0.0316 µM", "result": 94, "unit": "%"}, {"measurement": "viability, T/C", "setting": "second compound 0.316 µM, first compound 0.1 µM", "result": 92.8, "unit": "%"}, {"measurement": "viability, T/C", "setting": "second compound 0.316 µM, first compound 0.316 µM", "result": 79.5, "unit": "%"}, {"measurement": "viability, T/C", "setting": "second compound 0.316 µM, first compound 1 µM", "result": 85.9, "unit": "%"}, {"measurement": "viability, T/C", "setting": "second compound 0.316 µM, first compound 3.16 µM", "result": 61.2, "unit": "%"}, {"measurement": "viability, T/C", "setting": "second compound 0.316 µM, first compound 10 µM", "result": 47.5, "unit": "%"}, {"measurement": "viability, T/C", "setting": "second compound 1 µM, first compound 0.0316 µM", "result": 78.8, "unit": "%"}, {"measurement": "viability, T/C", "setting": "second compound 1 µM, first compound 0.1 µM", "result": 80.1, "unit": "%"}, {"measurement": "viability, T/C", "setting": "second compound 1 µM, first compound 0.316 µM", "result": 68.3, "unit": "%"}, {"measurement": "viability, T/C", "setting": "second compound 1 µM, first compound 1 µM", "result": 71.2, "unit": "%"}, {"measurement": "viability, T/C", "setting": "second compound 1 µM, first compound 3.16 µM", "result": 61, "unit": "%"}, {"measurement": "viability, T/C", "setting": "second compound 1 µM, first compound 10 µM", "result": 37.7, "unit": "%"}, {"measurement": "viability, T/C", "setting": "second compound 3.16 µM, first compound 0.0316 µM", "result": 61, "unit": "%"}, {"measurement": "viability, T/C", "setting": "second compound 3.16 µM, first compound 0.1 µM", "result": 63.8, "unit": "%"}, {"measurement": "viability, T/C", "setting": "second compound 3.16 µM, first compound 0.316 µM", "result": 55.8, "unit": "%"}, {"measurement": "viability, T/C", "setting": "second compound 3.16 µM, first compound 1 µM", "result": 56.5, "unit": "%"}, {"measurement": "viability, T/C", "setting": "second compound 3.16 µM, first compound 3.16 µM", "result": 35.2, "unit": "%"}, {"measurement": "viability, T/C", "setting": "second compound 3.16 µM, first compound 10 µM", "result": 22.1, "unit": "%"}, {"measurement": "viability, T/C", "setting": "second compound 10 µM, first compound 0.0316 µM", "result": 52.7, "unit": "%"}, {"measurement": "viability, T/C", "setting": "second compound 10 µM, first compound 0.1 µM", "result": 46.4, "unit": "%"}, {"measurement": "viability, T/C", "setting": "second compound 10 µM, first compound 0.316 µM", "result": 44.8, "unit": "%"}, {"measurement": "viability, T/C", "setting": "second compound 10 µM, first compound 1 µM", "result": 43.4, "unit": "%"}, {"measurement": "viability, T/C", "setting": "second compound 10 µM, first compound 3.16 µM", "result": 36.3, "unit": "%"}, {"measurement": "viability, T/C", "setting": "second compound 10 µM, first compound 10 µM", "result": 16.5, "unit": "%"}]}
{"smiles": "NC(=O)C(=Cn1cnc(-c2cc(C(F)(F)F)cc(C(F)(F)F)c2)n1)c1cncnc1", "note": "+ Cc1c(S(C)(=O)=O)c(-c2cc(F)cc(N3CCN(c4ccc(NS(=O)(=O)c5ccc(NC(CCN6CCC(C(=O)OCCCP(=O)(O)O)CC6)CSc6ccccc6)c(S(=O)(=O)C(F)(F)F)c5)cc4)CC3)c2)c(-c2ccc(Cl)cc2)n1C(C)C", "values": [{"measurement": "IC50", "setting": "second compound 0.0316 µM", "result": 27.2, "unit": "nM"}, {"measurement": "IC50", "setting": "second compound 0.1 µM", "result": 25.1, "unit": "nM"}, {"measurement": "IC50", "setting": "second compound 0.316 µM", "result": 18.8, "unit": "nM"}, {"measurement": "IC50", "setting": "second compound 1 µM", "result": 15.5, "unit": "nM"}, {"measurement": "IC50", "setting": "second compound 3.16 µM", "result": 8.57, "unit": "nM"}, {"measurement": "IC50", "setting": "second compound 10 µM", "result": "< 0.949", "unit": "nM"}, {"measurement": "viability, T/C", "setting": "second compound 0.0316 µM, first compound 0.000949 µM", "result": 98.4, "unit": "%"}, {"measurement": "viability, T/C", "setting": "second compound 0.0316 µM, first compound 0.003 µM", "result": 101, "unit": "%"}, {"measurement": "viability, T/C", "setting": "second compound 0.0316 µM, first compound 0.00949 µM", "result": 80.7, "unit": "%"}, {"measurement": "viability, T/C", "setting": "second compound 0.0316 µM, first compound 0.03 µM", "result": 49.4, "unit": "%"}, {"measurement": "viability, T/C", "setting": "second compound 0.0316 µM, first compound 0.0949 µM", "result": 10.3, "unit": "%"}, {"measurement": "viability, T/C", "setting": "second compound 0.0316 µM, first compound 0.3 µM", "result": 4.54, "unit": "%"}, {"measurement": "viability, T/C", "setting": "second compound 0.1 µM, first compound 0.000949 µM", "result": 84.2, "unit": "%"}, {"measurement": "viability, T/C", "setting": "second compound 0.1 µM, first compound 0.003 µM", "result": 94.9, "unit": "%"}, {"measurement": "viability, T/C", "setting": "second compound 0.1 µM, first compound 0.00949 µM", "result": 71.8, "unit": "%"}, {"measurement": "viability, T/C", "setting": "second compound 0.1 µM, first compound 0.03 µM", "result": 48.5, "unit": "%"}, {"measurement": "viability, T/C", "setting": "second compound 0.1 µM, first compound 0.0949 µM", "result": 6.86, "unit": "%"}, {"measurement": "viability, T/C", "setting": "second compound 0.1 µM, first compound 0.3 µM", "result": 2.64, "unit": "%"}, {"measurement": "viability, T/C", "setting": "second compound 0.316 µM, first compound 0.000949 µM", "result": 94.8, "unit": "%"}, {"measurement": "viability, T/C", "setting": "second compound 0.316 µM, first compound 0.003 µM", "result": 82.6, "unit": "%"}, {"measurement": "viability, T/C", "setting": "second compound 0.316 µM, first compound 0.00949 µM", "result": 71.9, "unit": "%"}, {"measurement": "viability, T/C", "setting": "second compound 0.316 µM, first compound 0.03 µM", "result": 36.9, "unit": "%"}, {"measurement": "viability, T/C", "setting": "second compound 0.316 µM, first compound 0.0949 µM", "result": 5.33, "unit": "%"}, {"measurement": "viability, T/C", "setting": "second compound 0.316 µM, first compound 0.3 µM", "result": 1.97, "unit": "%"}, {"measurement": "viability, T/C", "setting": "second compound 1 µM, first compound 0.000949 µM", "result": 76, "unit": "%"}, {"measurement": "viability, T/C", "setting": "second compound 1 µM, first compound 0.003 µM", "result": 80.1, "unit": "%"}, {"measurement": "viability, T/C", "setting": "second compound 1 µM, first compound 0.00949 µM", "result": 57.9, "unit": "%"}, {"measurement": "viability, T/C", "setting": "second compound 1 µM, first compound 0.03 µM", "result": 37.2, "unit": "%"}, {"measurement": "viability, T/C", "setting": "second compound 1 µM, first compound 0.0949 µM", "result": 3.95, "unit": "%"}, {"measurement": "viability, T/C", "setting": "second compound 1 µM, first compound 0.3 µM", "result": 1.71, "unit": "%"}, {"measurement": "viability, T/C", "setting": "second compound 3.16 µM, first compound 0.000949 µM", "result": 68.7, "unit": "%"}, {"measurement": "viability, T/C", "setting": "second compound 3.16 µM, first compound 0.003 µM", "result": 57.7, "unit": "%"}, {"measurement": "viability, T/C", "setting": "second compound 3.16 µM, first compound 0.00949 µM", "result": 50.6, "unit": "%"}, {"measurement": "viability, T/C", "setting": "second compound 3.16 µM, first compound 0.03 µM", "result": 21.3, "unit": "%"}, {"measurement": "viability, T/C", "setting": "second compound 3.16 µM, first compound 0.0949 µM", "result": 3.51, "unit": "%"}, {"measurement": "viability, T/C", "setting": "second compound 3.16 µM, first compound 0.3 µM", "result": 1.52, "unit": "%"}, {"measurement": "viability, T/C", "setting": "second compound 10 µM, first compound 0.000949 µM", "result": 47.4, "unit": "%"}, {"measurement": "viability, T/C", "setting": "second compound 10 µM, first compound 0.003 µM", "result": 51.3, "unit": "%"}, {"measurement": "viability, T/C", "setting": "second compound 10 µM, first compound 0.00949 µM", "result": 35.7, "unit": "%"}, {"measurement": "viability, T/C", "setting": "second compound 10 µM, first compound 0.03 µM", "result": 23.6, "unit": "%"}, {"measurement": "viability, T/C", "setting": "second compound 10 µM, first compound 0.0949 µM", "result": 3.04, "unit": "%"}, {"measurement": "viability, T/C", "setting": "second compound 10 µM, first compound 0.3 µM", "result": 1.13, "unit": "%"}]}
